Counter-ions that a name gives are not always drawn.
What was measured:
[1] = system: microfilariae of Dirofilaria immitis; experiment: Dirofilaria immitis, Microfilaria (DiMF) In vitro Assay; assay type: cell-based; conditions: 72 h, read-out: DiMF Minimum Effective Dose (MED), approximately 72 hours incubation, microfilariae assessed for survival or paralysis
[2] = system: third stage larvae of Haemonchus contortus; experiment: Haemonchus contortus L3 (HcL3) Assay; assay type: cell-based; conditions: 96 h, read-out: HcL3 Minimum Effective Dose (MED)

SMILES | minimal effective concentration [1] [µM] | minimal effective concentration [2] [µM]
CC(C)C[C@H]1C(=O)O[C@H](Cc2ccc(Cn3nc(CO)cc3C3CC3)cc2)C(=O)N(C)[C@@H](CC(C)C)C(=O)O[C@H](C)C(=O)N(C)[C@@H](CC(C)C)C(=O)O[C@H](Cc2ccc(Cn3nc(C#N)cc3C#N)cc2)C(=O)N(C)[C@@H](CC(C)C)C(=O)O[C@H](C)C(=O)N1C [Example 1a-10, 1-(4-(((2R,5S,8R,11S,14R,17S,20R,23S)-14-(4-((5-cyclopropyl-3-(hydroxymethyl)-1H-pyrazol-1-yl)methyl)benzyl)-5,11,17,23-tetraisobutyl-4,8,10,16,20,22-hexamethyl-3,6,9,12,15,18,21,24-octaoxo-1,7,13,19-tetraoxa-4,10,16,22-tetraazacyclotetracosan-2-yl)methyl)benzyl)-1H-pyrazole-3,5-dicarbonitrile] | 0.001 to 0.01 | 1 to 10
COc1cnn(Cc2ccc(C[C@H]3OC(=O)[C@H](CC(C)C)N(C)C(=O)[C@@H](C)OC(=O)[C@H](CC(C)C)N(C)C(=O)[C@@H](Cc4cccc(Cn5cc(OC)cn5)c4)OC(=O)[C@H](CC(C)C)N(C)C(=O)[C@@H](C)OC(=O)[C@H](CC(C)C)N(C)C3=O)cc2)c1 [Example 3-27, (3S,6R,9S,12R,15S,18R,21S,24R)-3,9,15,21-tetraisobutyl-6-(3-((4-methoxy-1H-pyrazol-1-yl)methyl)benzyl)-18-(4-((4-methoxy-1H-pyrazol-1-yl)methyl)benzyl)-4,10,12,16,22,24-hexamethyl-1,7,13,19-tetraoxa-4,10,16,22-tetraazacyclotetracosan-2,5,8,11,14,17,20,23-octaone] | – | 1 to 10
CC(C)C[C@H]1C(=O)O[C@H](Cc2ccc(CN3CCOCC3)cc2)C(=O)N(C)[C@@H](CC(C)C)C(=O)O[C@H](C)C(=O)N(C)[C@@H](CC(C)C)C(=O)O[C@H](Cc2ccc(CN3CCOCC3)cc2)C(=O)N(C)[C@@H](CC(C)C)C(=O)O[C@H](C)C(=O)N1C [Example 9-1, (3S,6R,9S,12R,15S,18R,21S,24R)-3,9,15,21-tetraisobutyl-4,6,10,16,18,22-hexamethyl-12,24-bis(4-(morpholinomethyl)benzyl)-1,7,13,19-tetraoxa-4,10,16,22-tetraazacyclotetracosan-2,5,8,11,14,17,20,23-octaone] | – | 1 to 10
CC(C)C[C@H]1C(=O)O[C@H](Cc2ccc(CN3CCNc4ccccc43)cc2)C(=O)N(C)[C@@H](CC(C)C)C(=O)O[C@H](C)C(=O)N(C)[C@@H](CC(C)C)C(=O)O[C@H](Cc2ccc(CN3CCNc4ccccc43)cc2)C(=O)N(C)[C@@H](CC(C)C)C(=O)O[C@H](C)C(=O)N1C [Example 9-69, (3S,6R,9S,12R,15S,18R,21S,24R)-6,18-bis[[4-(3,4-dihydro-2H-quinoxalin-1-ylmethyl)phenyl]methyl]-3,9,15,21-tetraisobutyl-4,10,12,16,22,24-hexamethyl-1,7,13,19-tetraoxa-4,10,16,22-tetrazacyclotetracosane-2,5,8,11,14,17,20,23-octaone dihydrochloride] | – | 10 to 100
CC(C)C[C@H]1C(=O)O[C@H](Cc2ccc(CN3CCOCC3)cc2)C(=O)N(C)[C@@H](CC(C)C)C(=O)O[C@H](C)C(=O)N(C)[C@@H](CC(C)C)C(=O)O[C@H](Cc2ccccc2)C(=O)N(C)[C@@H](CC(C)C)C(=O)O[C@H](C)C(=O)N1C [Example 10-6, (3S,6R,9S,12R,15S,18R,21S,24R)-6-benzyl-3,9,15,21-tetraisobutyl-4,10,12,16,22,24-hexamethyl-18-(4-(morpholinomethyl)benzyl)-1,7,13,19-tetraoxa-4,10,16,22-tetraazacyclotetracosan-2,5,8,11,14,17,20,23-octaone] | – | 1 to 10

Source: patent US11331369B2, “Endoparasitic depsipeptides” (Zoetis Services LLC, priority 2017, dated 2022)
